{"source": "patent US6001389A", "about": "“Compositions containing biologically active silicon” (priority 1997, dated 1999)", "key": {"[1]": {"tested_on": "collagenase type activity of human chondrocytes", "experiment": "collagenase type enzymatic activity of human chondrocytes culture (Cawston and Barrett method)", "format": "cell-based", "conditions": "no IL-1", "experimental": "Effect of a diethylphosphatoethyltrisilanol's precursor, the diethylphosphatoethyltriethoxysilane, on the collagenase type activity of human chondrocytes culture.\n(§1) Chondrocytes cultures are carried out from human cartilages sampled on cadavers 12 hours after the death. In aqueous buffered medium (pH 7.0-7.4), the diethylphosphatoethyltriethoxysilane releases the corresponding diethylphosphatoethyltrisilanol, which is the active silanol. The collagenase type enzymatic activity of these chondrocytes cultures is quantified following the Cawston and Barrett method."}, "[2]": {"tested_on": "stromelysine type activity of human chondrocytes", "experiment": "stromelysine type enzymatic activity of human chondrocytes culture after IL-1 induction (digestion of casein coupled with resorufine)", "format": "cell-based", "conditions": "after IL-1 treatment", "experimental": "Effect of a diethylphosphatoethyltrisilanol's precursor, the diethylphosphatoethyltriethoxysilane, on the stromelysine type activity of human chondrocytes culture after IL-1 induction.\nas §1, with “Human chondrocytes” for “Chondrocytes”, “stromelysine” for “collagenase”, “quantified, after previous treatment of cultures with IL-1, by” for “quantified following”, “method of digestion of casein coupled with resorufine.” for “Cawston and Barrett method.”"}, "[3]": {"tested_on": "osteoblasts alkaline phosphatase", "experiment": "synthetic activity of osteoblasts (alkaline phosphatase activity)", "format": "cell-based, human", "experimental": "Effect of a diethylphosphatoethyltrisilanol's precursor, the diethylphosphatoethyltriethoxysilane, on the synthetic activity of osteoblasts.\n(§2) Osteoblasts cultures are carried out from human bones sampled on cadavers 12 hours after the death. In aqueous buffered medium (pH 7.0-7.4), the diethylphosphatoethyltriethoxysilane releases the corresponding diethylphosphatoethyltrisilanol, which is the active silanol. The synthetic activity of these osteoblasts is quantified by the measure of the alkaline phosphatase activity."}, "[4]": {"tested_on": "stromelysine type activity of human chondrocytes", "experiment": "stromelysine type enzymatic activity of human chondrocytes culture (digestion of casein coupled with resorufine)", "format": "cell-based", "conditions": "no IL-1", "experimental": "Effect of a diethylphosphatoethyltrisilanol's precursor, the diethylphosphatoethyltriethoxysilane, on the stromelysine type activity of human chondrocytes culture.\nas §1, with “stromelysine” for “collagenase”, “by” for “following”, “method of digestion of casein coupled with resorufine.” for “Cawston and Barrett method.”"}, "[5]": {"tested_on": "IL-6 of osteoblasts", "experiment": "IL-6 level of osteoblasts (ELISA)", "format": "cell-based, human", "experimental": "Effect of a diethylphosphatoethyltrisilanol's precursor, the diethylphosphatoethyltriethoxysilane, on the IL-6 activity of osteoblasts.\nas §2, with “IL-6” for “The synthetic activity of these osteoblasts”, “ELISA technique.” for “measure of the alkaline phosphatase activity.”"}, "[6]": {"tested_on": "chymotrypsine-like activity of epidermic extract", "experiment": "chymotrypsine-like activity of an epidermic extract (BTEE degradation)", "format": "biochemical", "experimental": "Effect of a diethylphosphatoethyltrisilanol's precursor, the diethylphosphatoethyltriethoxysilane, on the chymotrypsine type activity of an epidermic extract.\nAfter sampling from a cutaneous tissue, the epidermis is cut then put in an appropriate buffered solution. The solution is homogenized with Ultra Turax (40 C.) until a satisfying epidermic extract is obtained. The chymotrypsine-like activity of this extract is assessed by the measure of the N alpha-Benzoyl-L-Tyrosine Ethyl Ester (BTEE) degradation (specific synthetic substrate)."}, "[7]": {"tested_on": "collagenase type activity of human chondrocytes", "experiment": "collagenase type enzymatic activity of human chondrocytes cultures after IL-1 induction (Cawston and Barrett method)", "format": "cell-based", "conditions": "after IL-1 treatment", "experimental": "Effect of a diethylphosphatoethyltrisilanol's precursor, the diethylphosphatoethyltriethoxysilane, on the collagenase type activity of human chondrocytes cultures after IL-1 induction.\nas §1, with “method after previous treatment of the cultures by IL-1.” for “method.”"}, "[8]": {"tested_on": "desquamine", "experiment": "desquamine-like activity of an epidermic extract (hydrolysis of synthetic specific substrate of tPA)", "format": "biochemical", "experimental": "Effect of a diethylphosphatoethyltrisilanol's precursor, the diethylphosphatoethyltriethoxysilane, on the \"desquame-like\" activity of an epidermic extract.\nDesquamine is obtained from an epidermic extract according to the Brysk and al (1994) method. The desquamine activity is evaluated by its ability to hydrolyze the synthetic specific substrate of the tPA for which it has a very strong affinity."}}}
{"smiles": "CCOP(=O)(CC[Si](O)(O)O)OCC", "note": "[diethylphosphatoethyltrisilanol]", "values": [{"measurement": "inhibition of \"collagenase-like\" activity of the chondrocytes", "setting": "[1]; 500 μg/ml", "value": 30, "unit": "%"}, {"measurement": "effect on \"collagenase-like\" activity of the chondrocytes, in words", "setting": "[1]", "value": "dose-dependent decrease"}, {"measurement": "inhibition of \"collagenase-like\" activity of the chondrocytes (stromelysine type activity test)", "setting": "[2]; 500 μg/ml", "value": 18, "unit": "%"}, {"measurement": "effect on \"collagenase-like\" activity of the chondrocytes (stromelysine type activity test), in words", "setting": "[2]", "value": "dose-dependent decrease"}, {"measurement": "effect on osteoblasts alkaline phosphatases activity, in words", "setting": "[3]", "value": "dose-dependent increase"}, {"measurement": "increase of the osteoblasts alkaline phosphatases activity (printed \"inhibition\")", "setting": "[3]; 100 μg/ml", "value": "+24%"}, {"measurement": "inhibition of \"collagenase-like\" activity of the chondrocytes (stromelysine type activity test)", "setting": "[4]; 500 μg/ml", "value": 37, "unit": "%"}, {"measurement": "effect on \"collagenase-like\" activity of the chondrocytes (stromelysine type activity test), in words", "setting": "[4]", "value": "dose-dependent decrease"}, {"measurement": "effect on osteoblasts IL-6 level, in words", "setting": "[5]", "value": "dose-dependent decrease"}, {"measurement": "decrease of the osteoblasts IL-6 level (inhibition)", "setting": "[5]; 100 μg/ml", "value": -49, "unit": "%"}, {"measurement": "effect on \"chymotrypsine-like\" activity of the epidermic extract, in words", "setting": "[6]", "value": "dose-dependant decrease"}, {"measurement": "inhibition of \"chymotrypsine-like\" activity of the epidermic extract", "setting": "[6]; 400 μg/ml (printed 400 μ0 g/ml)", "value": 27, "unit": "%"}, {"measurement": "inhibition of \"collagenase-like\" activity of the chondrocytes", "setting": "[7]; 500 μg/ml", "value": 21, "unit": "%"}, {"measurement": "effect on \"collagenase-like\" activity of the chondrocytes, in words", "setting": "[7]", "value": "dose-dependent decrease"}]}
{"smiles": "C[Si](O)(O)O", "note": "[CH3 Si(OH)3]", "values": [{"measurement": "effect on \"desquamine-like\" activity of the epidermic extract, in words", "setting": "[8]", "value": "dose-dependent inhibition"}, {"measurement": "inhibition of the \"desquamine-like\" activity of the epidermic extract", "setting": "[8]; 300 μg/ml", "value": 25, "unit": "%"}]}
